The target in one assay is insulin receptor (IR) (Homo sapiens, UniProt P06213). As to the kind of experiment: Binding affinity of insulin-core mutants relative to the A13R mutation.
The target of assay [1] is T1, human insulin receptor (Homo sapiens, UniProt P06213). As to the kind of experiment: Cell-based pAKT (Ser473) assay in NIH 3T3 cells overexpressing human insulin receptor. More on the design: expressed in transfected cells; host or cells: NIH 3T3 cell line derived from IGF-1R knockout mice (gift from A. Morrione, Thomas Jefferson University).
Description: All the values are shown as mean±SD (n=4). EC50 and IC50 values were calculated by Prism 9 (GraphPad Software, California, USA) with nonlinear regression curve fitting of dose-response asymmetric equation.
Cell-based pAKT and phosphor-IR-beta Assays. The bioactivities of the analogs were evaluated through a cell-based pAKT (Ser473) assay or phospho-IR-beta (Tyr1150/1151) assay. Endogenous levels of pAKT or phosphor-IR-beta were measured in a human insulin receptor overexpressed NIH 3T3 cell line, derived from IGF-1R knockout mice (a generous gift from A. Morrione, Thomas Jefferson University). Cells were cultured in DMEM (Gibco) with 10% fetal bovine serum (FBS, Gibco), 100 U/mL penicillin-streptomycin (Gibco), 2 mg/mL puromycin (Thermo Fisher Scientific), and 1 mg/mL normocin (InvivoGen) at 37° C. under 5% CO2. For the assays, 30,000 cells per well and 100 μl per well, were plated in a 96-well plate with culture media containing 1% FBS. 20 hours later, the media was removed and 50 μl of culture media with different concentrations of native insulin or analog was pipetted into each well. […] After 4 hours of incubation, the plate was read in a SpectraMax iD5 plate reader (Molecular Devices) and the data were processed according to the manufacturer's protocol. […]
Assay [2] addresses T1, human insulin receptor. Put plainly: cell-based or functional assay.

A word on the EC50: it is the concentration needed to bring the measured effect to its halfway point.

Positions of bridges follow the written chain, without caps; N, C: chain ends. Chains are numbered I, II in the order given. No end group written: not given here.

With “I: FVNQHLCGSELVEALYLVCGERGFFYTPK / II: GIVEQCCHRICSLYQLENYCGGSLPETGG (disulfide I:7-II:7, I:19-II:20, II:6-II:11) [Ins-AC-10-9]”, the “binding affinity relative to the A13R mutation” value at insulin receptor (IR) was “increased”. Further, the EC50 on human insulin receptor [1] came to 0.562 nM.

Turning to “I: GIVEQCCHRICSLYQLENYCGGSLPETGGGSLEEEWAQIQSEVWGRGSPSY / II: FVNQHLCGSELVEALYLVCGERGFFYTPK (disulfide I:6-I:11, I:7-II:7, I:20-II:19) [Ins-AC-10-11]”, the “binding affinity relative to the A13R mutation” value on insulin receptor (IR) is recorded as “increased”. On human insulin receptor [1], a half-maximal response (EC50) required 0.0115 nM.

B1: Ins-AC-10-9 (designed binder)
chain 1: GIVEQCCHRICSLYQLENYCGGSLPETGG
chain 2: FVNQHLCGSELVEALYLVCGERGFFYTPK
As for B1, the Agonist Activity (nM), cell-based pAKT assay in the assay with human insulin receptor [2] turned out to be 0.562 nM.

B2: Ins-AC-10-11 (designed binder)
chain 1: GIVEQCCHRICSLYQLENYCGGSLPETGGGSLEEEWAQIQSEVWGRGSPSY
chain 2: FVNQHLCGSELVEALYLVCGERGFFYTPK
In the assay with human insulin receptor [2], B2 returned an Agonist Activity (nM), cell-based pAKT assay of 0.0115 nM and an Antagonist Activity (nM), cell-based pAKT assay of 0.5 nM.

The record behind these values is patent publication US20260209304A1, “INSULIN RECEPTOR ANTAGONIST” (The Board of Trustees of the Leland Stanford Junior …, priority 2022, published 2026).
